Legend:
[1] = system: SW1900 cells (KRAS G12D); experiment: Cell-based pERK HTRF assay in SW1900 cells (Biological Example 5)
Description: (§1) Biological Example 5: Cell-based PERK HTRF assay in AsPC-1, SW1900, HPAC, Capan-2, RKN, H358, HCT116, KP-2, H1573, A549, MKN1, and HT1080 cells
(§2) The inhibition of ERK phosphorylation, as measured using the HTRF Advanced Phospho-ERK 1/2 (Thr202/Tyr204) Detection Assay kit (Perkin Elmer), was used to determine the effectiveness of test compounds in disrupting KRAS-driven protein/effector signaling in cells.
(§3) On day 1, cells were seeded into 96-well plates at 2.5×10^4 cells/well in 100 μL of complete growth media supplemented with 10% fetal bovine serum (FBS) and incubated at 37° C., in the presence of 5% CO2.
(§4) On day 2, cells were treated with compounds diluted in DMSO at 0.25% final DMSO concentration. Compounds were dosed in a 9-point concentration curve with three-fold dilution between concentrations. Cells were incubated in the presence of compound for two hours at 37° C. Following this treatment period, cells were harvested by aspirating the media, adding 40 μL of kit-supplied 1x lysis buffer per well, and shaking for 30 minutes at 250 rpm at room temperature.
(§5) Following cell lysis, samples were homogenized by pipetting up and down twenty times and 16 μL of cell lysate per well was transferred from the 96-well cell culture plate to two wells of a 384-well detection plate. A complete detection buffer was prepared by diluting D2 and Eu Cryptate antibodies 1:20 in kit-provided detection solution, 4 μL of complete detection buffer was then added to each well with lysate. Plates were incubated with gentle rocking for 24 hours at 4° C.
(§6) Following this incubation period, plates were centrifuged at 500×g for one minute and analyzed on a CLARIOstar plate reader. Data was imported into Microsoft Excel and the signal from the 665 nm channel was divided by the signal from the 620 nm channel. % pERK was calculated as: […]
(§7) Data was imported to the Prism software package (Graphpad) and EC50 values were calculated using the log (inhibitor) vs, response—variable slopc (Four parameters) model.

[2] = system: SW1900 cells (KRAS G12D); experiment: 3D Cell viability assay in SW1900 cells (Biological Example 6); format: cell-based; settings: SW1990 (text: SW1900, KRAS G12D) spheroids, 72 hours
Description: (§8) Biological Example 6: 3D Cell viability assay in AsPC-1, SW1900, HPAC, Capan-2, RKN, H358, HCT116, KP-2, H1573, A549, MKN1, and HT1080 cells
(§9) The inhibition of cellular viability as a result of test compound treatment in a spheroid assay was measured using the CellTiter-Glow 3D Cell Viability Assay (Promega).
(§10) On Day 1, 1000 cells per well were seeded in 150 μL of complete growth media supplemented with 10% fetal bovine serum (FBS) and incubated at 37° C., in the presence of 5% CO2 in 96-well ultra-low attachment microplates (Corning) for 48 hours undisturbed to allow spheroids to form.
(§11) Following spheroid formation, cells were treated with compounds diluted in DMSO at 0.25% final DMSO concentration. Compounds were dosed in a 9-point concentration curve with three-fold dilution between concentrations. Cells were incubated in the presence of compound for 72 hours at 37° C., in the presence of 5% CO2.
(§12) Following this incubation period, the kit-provided CTG reagent was allowed to equilibrate for 30 minutes at room temperature, 150 μL of equilibrated CTG reagent was added to each well, and the plate was sealed before shaking at 250 rpm for 10 minutes at room temperature to lyse the cells, 150 μL of lysate per well was transferred to a 96-well plate and luminescence was read on a CLARIOstar plate reader.
(§13) Data was imported into the Prism software package (Graphpad) and EC50 values were calculated using the log (inhibitor) vs, response—variable slope (Four parameters) model.

[3] = system: H358 cells (KRAS G12C); experiment: 3D Cell viability assay in H358 cells (Biological Example 6); format: cell-based; settings: H358 (KRAS G12C) spheroids, 72 hours
Description: as §8, §9, §10, §11, §12, §13

[4] = system: MKN1 cells (KRAS amplification); experiment: Cell-based pERK HTRF assay in MKN1 cells (Biological Example 5)
Description: as §1, §2, §3, §4, §5, §6, §7

[5] = system: RKN cells (KRAS G12V); experiment: 3D Cell viability assay in RKN cells (Biological Example 6); format: cell-based; settings: RKN (KRAS G12V) spheroids, 72 hours
Description: as §8, §9, §10, §11, §12, §13

[6] = system: MKN1 cells (KRAS amplification); experiment: 3D Cell viability assay in MKN1 cells (Biological Example 6); format: cell-based; settings: MKN (MKN1, KRAS amplification) spheroids, 72 hours
Description: as §8, §9, §10, §11, §12, §13

[7] = system: AsPC-1 cells (KRAS G12D); experiment: 3D Cell viability assay in AsPC-1 cells (Biological Example 6); format: cell-based; settings: AsPC-1 (KRAS G12D) spheroids, 72 hours
Description: as §8, §9, §10, §11, §12, §13

[8] = Homo sapiens, SW1990, SW1990 cells (text: SW1900, KRAS G12D)
[9] = Homo sapiens, MKN-1, MKN cells (MKN1, KRAS amplification)
[10] = SW1990 cells (text: SW1900, KRAS G12D)
[11] = MKN cells (MKN1, KRAS amplification)

IC50 [1, 8] | IC50 ([2]; Homo sapiens) | IC50 ([3]; Homo sapiens, NCI-H358) | IC50 [4, 9] | IC50 ([6]; Homo sapiens, MKN-1) | IC50 ([7]; Homo sapiens, ASPC1) | IC50 [1, 10] | IC50 [4, 11] | IC50 [7] | IC50 [2] | IC50 [3] | IC50 [6] | SMILES | IC50 [5]
≤ 100 nM | ≤ 100 nM | ≤ 100 nM |  |  |  |  |  |  |  |  |  | N#Cc1c(N)sc2c(F)ccc(-c3c(C(F)(F)F)cc4c(N5CCCOCC5)nc(OC[C@@]56CCCN5C[C@H](F)C6)nc4c3F)c12 [Compound 232] | 
≤ 100 nM | ≤ 100 nM | ≤ 100 nM | ≤ 100 nM |  |  |  |  |  |  |  |  | C[C@@H]1[C@H](N(C)c2nc(OC[C@@]34CCCN3C[C@H](F)C4)nc3c(F)c(-c4ccc(F)c5sc(N)c(C#N)c45)c(C(F)(F)F)cc23)CCN1C(=O)C1CC1 [Compound 258] | 
≤ 100 nM | 100 to 1000 nM | ≤ 100 nM | ≤ 100 nM |  |  |  |  |  |  |  |  | CCC(=O)N1CC[C@@H](N(C)c2nc(OC[C@@]34CCCN3C[C@H](F)C4)nc3c(F)c(-c4ccc(F)c5sc(N)c(C#N)c45)c(C(F)(F)F)cc23)[C@H]1C [Compound 260] | ≤ 100 nM
≤ 100 nM | ≤ 100 nM | ≤ 100 nM | ≤ 100 nM | ≤ 100 nM |  |  |  |  |  |  |  | CCN(c1nc(OC[C@@]23CCCN2C[C@H](F)C3)nc2c(F)c(-c3ccc(F)c4sc(N)c(C#N)c34)c(Cl)cc12)[C@@H]1CCN(C(C)=O)[C@@H]1C [Compound 323] | 
 | 100 to 1000 nM | ≤ 100 nM |  |  |  |  |  |  |  |  |  | N#Cc1c(N)sc2c(F)ccc(-c3c(C(F)(F)F)cc4c(N5CC6CC5CO6)nc(OC[C@@]56CCCN5C[C@H](F)C6)nc4c3F)c12 (stereo partly shown) [Compound 147] | 
≤ 100 nM | ≤ 100 nM | ≤ 100 nM | ≤ 100 nM |  |  |  |  |  |  |  |  | N#Cc1c(N)sc2c(F)ccc(-c3c(C(F)(F)F)cc4c(N5CCC[C@@H](O)C5)nc(OC[C@@]56CCCN5C[C@H](F)C6)nc4c3F)c12 [Compound 234] | 
≤ 100 nM | ≤ 100 nM | ≤ 100 nM | ≤ 100 nM | ≤ 100 nM |  |  |  |  |  |  |  | CCN(c1nc(OC[C@@]23CCCN2C[C@H](F)C3)nc2c(F)c(-c3ccc(F)c4sc(N)c(C#N)c34)c(Cl)cc12)[C@@H]1CCN(C(=O)C2CC2)[C@@H]1C [Compound 337] | 
≤ 100 nM | ≤ 100 nM | ≤ 100 nM | ≤ 100 nM | ≤ 100 nM | ≤ 100 nM |  |  |  |  |  |  | CCN(c1nc(OC[C@@]23CCCN2C[C@H](F)C3)nc2c(F)c(-c3ccc(F)c4sc(N)c(C#N)c34)c(C(F)(F)F)cc12)[C@H]1CCN(C(=O)N2CC(F)C2)C1 (atropisomer, axis not shown) [Compound 606] | ≤ 100 nM
≤ 100 nM | ≤ 100 nM | ≤ 100 nM | ≤ 100 nM | ≤ 100 nM | ≤ 100 nM |  |  |  |  |  |  | CCN(c1nc(OC[C@@]23CCCN2C[C@H](F)C3)nc2c(F)c(-c3ccc(F)c4sc(N)c(C#N)c34)c(C(F)(F)F)cc12)[C@H]1CCN(C(C)=O)C1 [Compound 262] | ≤ 100 nM
≤ 100 nM | ≤ 100 nM | ≤ 100 nM | ≤ 100 nM | ≤ 100 nM | ≤ 100 nM |  |  |  |  |  |  | CCN(c1nc(OC[C@@]23CCCN2C[C@H](F)C3)nc2c(F)c(-c3ccc(F)c4sc(N)c(C#N)c34)c(C(F)(F)F)cc12)[C@H]1C[C@H](C)N(C(=O)[C@@H]2CC2(F)F)C1 (atropisomer, axis not shown) [Compound 751] | ≤ 100 nM
≤ 100 nM | ≤ 100 nM | ≤ 100 nM | ≤ 100 nM | ≤ 100 nM | ≤ 100 nM |  |  |  |  |  |  | CCN(c1nc(OC[C@@]23CCCN2C[C@H](F)C3)nc2c(F)c(-c3ccc(F)c4sc(N)c(C#N)c34)c(C(F)(F)F)cc12)[C@H]1C[C@@H](C)N(C(=O)C2COC2)C1 (atropisomer, axis not shown) [Compound 586] | ≤ 100 nM
 |  |  |  |  |  | ≤ 100 nM | ≤ 100 nM | ≤ 100 nM | ≤ 100 nM | ≤ 100 nM | ≤ 100 nM | CCN(c1nc(OCC23CCCN2CC(F)C3)nc2c(F)c(-c3ccc(F)c4sc(N)c(C#N)c34)c(C(F)(F)F)cc12)C1CC(C)N(C(=O)N2CC(F)C2)C1 (stereo not shown) [Compound 759] | ≤ 100 nM
≤ 100 nM | ≤ 100 nM | ≤ 100 nM | ≤ 100 nM | ≤ 100 nM | ≤ 100 nM |  |  |  |  |  |  | C/C=C/C(=O)N1CC[C@H](N(CC)c2nc(OC[C@@]34CCCN3C[C@H](F)C4)nc3c(F)c(-c4ccc(F)c5sc(N)c(C#N)c45)c(C(F)(F)F)cc23)C1 (atropisomer, axis not shown) [Compound 674] | ≤ 100 nM
≤ 100 nM |  | ≤ 100 nM | ≤ 100 nM | ≤ 100 nM |  |  |  |  |  |  |  | CC(=O)N1CC[C@@H](N(C)c2nc(OC[C@@]34CCCN3C[C@H](F)C4)nc3c(F)c(-c4ccc(F)c5sc(N)c(C#N)c45)c(C(F)(F)F)cc23)[C@H]1C (single isomer, unassigned) [Compound 193] | 
≤ 100 nM | ≤ 100 nM | ≤ 100 nM | ≤ 100 nM | ≤ 100 nM | ≤ 100 nM |  |  |  |  |  |  | CN(Cc1cccnc1N)c1nc(OC[C@@]23CCCN2C[C@H](F)C3)nc2c(F)c(-c3ccc(F)c4sc(N)c(C#N)c34)c(C(F)(F)F)cc12 [Compound 390] | 
 |  |  |  |  |  | ≤ 100 nM | ≤ 100 nM |  |  | ≤ 100 nM | ≤ 100 nM | CN(c1nc(OC[C@@]23CCCN2C[C@H](F)C3)nc2c(F)c(-c3ccc(F)c4sc(N)c(C#N)c34)c(C(F)(F)F)cc12)[C@H]1C[C@@H](O)C1 [Compound 19, 2-amino-7-fluoro-4-((S)-8-fluoro-2-(((2R,7aS)-2-fluorotetrahydro-1H-pyrrolizin-7a(5H)-yl)methoxy)-4-(((1s,3R)-3-hydroxycyclobutyl)(methyl)amino)-6-(trifluoromethyl)quinazolin-7-yl)benzo[b]thiophene-3-carbonitrile] | ≤ 100 nM
≤ 100 nM |  | ≤ 100 nM | ≤ 100 nM | ≤ 100 nM |  |  |  |  |  |  |  | N#Cc1c(N)sc2c(F)ccc(-c3c(C(F)(F)F)cc4c(N5CCOCC5)nc(OC[C@@]56CCCN5C[C@H](F)C6)nc4c3F)c12 (single isomer, unassigned) [Compound 198] | 
≤ 100 nM | ≤ 100 nM | ≤ 100 nM | ≤ 100 nM | ≤ 100 nM | ≤ 100 nM |  |  |  |  |  |  | CCN(c1nc(OC[C@@]23CCCN2C[C@H](F)C3)nc2c(F)c(-c3ccc(F)c4sc(N)c(C#N)c34)c(C(F)(F)F)cc12)[C@H]1C[C@H](C)N(C(C)=O)C1 [Compound 463] | 
≤ 100 nM | 100 to 1000 nM | ≤ 100 nM | ≤ 100 nM | ≤ 100 nM |  |  |  |  |  |  |  | CC(=O)N1CC[C@@H](N(C)c2nc(OC[C@@]34CCCN3C[C@H](F)C4)nc3c(F)c(-c4ccc(F)c5sc(N)c(C#N)c45)c(Cl)cc23)[C@H]1C [Compound 398] | 
